Literature values, collected in US20110305778A1, “Chemically Stabilized Anti-Dandruff Compositions For Use In Personal Care Compositions” (priority 2010, published 2011).

Conditions: value in parenthesis after each coordinating compound; no method given

Structure (SMILES) | Log Zn Binding Constant
N=C(N)NCCC[C@H](N)C(=O)O [Arginine] | 4.2
O=C(O)C[C@H](NCCN[C@@H](CC(=O)O)C(=O)O)C(=O)O [EDDS] | 13.5
OB(O)O [Boric Acid] | 0.9
O=C(O)O [Carbonic Acid] | 3.9
Cl [Chloride] | −0.3
N[C@@H](CC(=O)O)C(=O)O [Aspartic Acid] | 5.9
N[C@@H](CSSC[C@H](N)C(=O)O)C(=O)O [Cystine] | 6.7
O=S(=O)(O)O [Sulfuric Acid] | 0.9
O=CO [Formic Acid] | 0.6
N[C@@H](CS)C(=O)O [Cysteine] | 9.1
O=C(O)CCCCC(=O)O [Adipic Acid] | 2.6
Cc1cc(C2(c3cc(C)c(O)c(CN(CC(=O)O)CC(=O)O)c3)OS(=O)(=O)c3ccccc32)cc(CN(CC(=O)O)CC(=O)O)c1O [Xylenol Orange] | 10.3
O=C(O)CNCCNCC(=O)O [EDDA] | 11.1
CC(=O)O [Acetic Acid] | 1.0
O=C(O)CC(O)(CC(=O)O)C(=O)O [Citric Acid] | 4.8

Further lines, results first:

Log Zn Binding Constant | Structure (SMILES)
2.4 | O=P(O)(O)O [Phosphoric Acid]
10.7 | O=C(O)CN(CC(=O)O)CC(=O)O [NTA]
16.5 | O=C(O)CN(CCN(CC(=O)O)CC(=O)O)CC(=O)O [EDTA]
2.0 | O=C(O)CO [Glycolic Acid]
2.9 | O=C(O)CC(O)C(=O)O (stereo not shown) [Malic Acid]
4.5 | N[C@@H](CCC(=O)O)C(=O)O [Glutamic Acid]
2.9 | O=C(O)CC(=O)O [Malonic Acid]
1.8 | O=C(O)CCC(=O)O [Succinic Acid]
4.4 | CSCC[C@H](N)C(=O)O [Methionine]
1.9 | CC(O)C(=O)O (stereo not shown) [Lactic Acid]
2.2 | O=C(O)c1ccccc1C(=O)O [Phthalic Acid]
3.2 | O=C(O)C(O)C(=O)O [Tatronic Acid]
5.0 | NCC(=O)O [Glycine]
